In patent publication US12152991B2, “Time-resolved laser-induced fluorescence spectroscopy systems and uses thereof” (Cedars-Sinai Medical Center, priority 2013, dated 2024):

Test system: rabbit brain tissue
Test: Continuous NADH fluorescence monitoring (TRLIFS) in ex-vivo brain tissue exposed to Rotenone
Format: cell-based
Conditions: FIG. 6
Description: In order to excite the tissue, a Q-switched Nd:YaG laser emitting at a wavelength of 350 nm was used, running at 1 KHz with a pulse width (FWHM) of 400 ps (Teem Photonics PNVM02510). […] The excitation light was delivered to the tissue using a custom made trifurcated optical probe. The probe consisted of a central 600 micron fiber for delivering the excitation light surrounded by twelve 200 micron fibers to collect the fluorescence (FIG. 3). Every other fiber from the twelve collection fibers were bundled together forming two channels. One collection channel/bundle connected to a spectrometer (Ocean Optics, Maya), which measured the fluorescence spectrum every 100 ms and the other channel/bundle connected to a beam splitter (demultiplexer). The beam splitter at 452 nm of wavelength separated the significant free and bound fluorescence, which was recorded both by MCP-PMT and spectrometer.
Rabbit brain was removed after sacrificing the animal in the OR and transported in cold oxygen rich Kreb-ringer solution to the laboratory. […] A baseline NADH (bound and free) was recorded till the fluorescence from the tissue equilibrated and plateaued. After approximately 30 mins, a measured dose of 50 nM rotenone, which blocks the binding of NADH to […] in the mitochondrion, was added. […]
The effect of various concentrations of Rotenone on the rabbit brain tissue was recorded (FIG. 6). […]

**Q.** With `C=C(C)[C@H]1Cc2c(ccc3c2O[C@@H]2COc4cc(OC)c(OC)cc4[C@@H]2C3=O)O1` [Rotenone] as the compound, how does the “NADH level (fluorescence, free and bound)” value (ex-vivo rabbit brain cortex in Kreb-Ringer solution, 95% O2/5% CO2, 50 nM Rotenone added, excitation 350 nm) read?
**A.** increase in NADH level

**Q.** And the NADH fluorescence (ex-vivo rabbit brain cortex, increasing concentrations of Rotenone added every 10 mins)?
**A.** NADH fluorescence increased
